Laboratory results taken from article PMC3315515, “Identification of Novel Mt-Guab2 Inhibitor Series Active against M. tuberculosis” (PLoS ONE, 2012).
Values after ≈ are worked out from the molar mass of the structure shown. Values joined by “and” are separate entries in the source; they are usually repeats but may differ in a detail not shown here. Equal entries are not always repeated. “Also recorded” adds a separate entry of the source. Where two headings read alike, the source gives them in different places.

What was measured:
M. smegmatis mc^2 155 = assay: microbe, parasite or virus in culture; assay type: cell-based; conditions: for M. smeg MIC90: Table 2, highest concentration tested 128 µg/ml
Mt-GuaB2 = Mt-GuaB2 (Mycobacterium tuberculosis, UniProt P9WKI7); assay: Mt-GuaB2 spectrophotometric assay (NADH formation at 340 nm), inhibitor kinetics; assay type: biochemical
M. tuberculosis H37Rv = conditions: cited from earlier work
[1] = system: M. tuberculosis Erdman strain; conditions: for Log 10 Protection, lung / Log 10 Protection, spleen: versus untreated controls d24, INH 25, 7759844 300 mg/kg/day
S. pyogenes IMPDH = conditions: ref [29], [34]; cited from earlier work
[2] = acute maximum tolerated dose (MTD) test; conditions: single dose 100, 300, 500 mg/kg by gavage in 0.5% methyl cellulose, seven days observation, C57BL/6 mice
[3] = system: M. smegmatis overexpressing Mt-GuaB2; assay: microbe, parasite or virus in culture; assay type: cell-based
M. smegmatis pVV16 = assay: MIC of M. smegmatis with empty pVV16 vector control; assay type: cell-based; conditions: Mycolicibacterium smegmatis, Figure 4, vector alone control
M. smegmatis = assay: bactericidal activity against M. smegmatis (colony counts after 24 hours exposure); assay type: cell-based; conditions: Mycolicibacterium smegmatis, at least 99% reduction of viable counts, read-out: minimum bactericidal concentration (MBC)
[4] = system: NC(=O)c1ccc[n+]([C@@H]2O[C@H](COP(=O)([O-])OP(=O)(O)OC[C@H]3O[C@@H](n4cnc5c(N)ncnc54)[C@H](O)[C@@H]3O)[C@@H](O)[C@H]2O)c1; assay: purified protein, by the assay type; conditions: other: variable substrate, fixed saturating co-substrate, 200 µl assay; pH 8.5; 37.0 °C
[5] = Table 2, varied IMP, fixed saturating NAD+ 2.8 mM
[6] = Table 2, Life Chemicals set, values without footnote a, previous screens ref [35]–[37]
[7] = Table 2, values with footnote a, ref Reynolds et al., 2011

Sequence of Mt-GuaB2 (P9WKI7 whole entry, looked up): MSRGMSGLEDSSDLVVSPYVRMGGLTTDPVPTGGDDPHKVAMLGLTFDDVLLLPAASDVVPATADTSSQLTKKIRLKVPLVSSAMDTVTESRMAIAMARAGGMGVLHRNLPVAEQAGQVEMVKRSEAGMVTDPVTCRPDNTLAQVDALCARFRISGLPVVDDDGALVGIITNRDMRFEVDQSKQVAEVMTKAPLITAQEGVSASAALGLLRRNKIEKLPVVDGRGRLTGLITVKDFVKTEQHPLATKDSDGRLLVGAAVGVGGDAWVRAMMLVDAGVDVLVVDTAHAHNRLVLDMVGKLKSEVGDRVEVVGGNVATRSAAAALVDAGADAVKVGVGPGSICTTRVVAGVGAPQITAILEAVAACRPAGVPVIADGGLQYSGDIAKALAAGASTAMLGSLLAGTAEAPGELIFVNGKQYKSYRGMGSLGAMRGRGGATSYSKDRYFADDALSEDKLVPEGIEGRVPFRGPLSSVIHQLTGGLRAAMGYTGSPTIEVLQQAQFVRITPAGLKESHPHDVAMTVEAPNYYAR

Q: Which “M. smeg MIC90” value (M. smegmatis mc^2 155; TSB agar, 37°C, 3 days) does the source give for `O=C(Nc1nnc(-c2ccccc2Cl)o1)c1nc2ccccc2s1` [F1374-0033] here?
A: The value was 8 µg/mL.

Q: And the “IMP αK i” value (Mt-GuaB2; [5])?
A: The value was 60.9 µM.

Q: What about the “M. tb MIC90” value (M. tuberculosis H37Rv; [6]) of the same compound?
A: The value was 1.75 µg/mL.

Q: With `COc1cc2ccccc2cc1C(=O)Nc1nnc(-c2ccc(F)cc2)o1` [F1374-0205] as the compound, how does the “M. smeg MIC90” value (M. smegmatis mc^2 155; TSB agar, 37°C, 3 days) read?
A: Its value is >128 µg/mL.

Q: And the “IMP αK i” value (Mt-GuaB2; [5])?
A: The value was 35.3 µM.

Q: And the “M. tb MIC90” value (M. tuberculosis H37Rv; [6])?
A: Its value is 5.59 µg/mL.

Q: With `COc1ccccc1-c1nnc(NC(=O)c2sc3ccccc3c2Cl)o1` [F1374-0253] as the compound, how does the “M. smeg MIC90” value (M. smegmatis mc^2 155; TSB agar, 37°C, 3 days) read?
A: Its value is >128 µg/mL.

Q: And the “pattern of inhibition with respect to IMP” value (Mt-GuaB2)?
A: The value was “uncompetitive inhibition”.

Q: And the “pattern of inhibition with respect to NAD+” value (Mt-GuaB2)?
A: The value was “noncompetitive inhibition”.

Q: And the “pattern of inhibition with respect to NAD” value (Mt-GuaB2; Table 2)?
A: Its value is “NC ((NC) Noncompetitive)”.

Q: And the “IMP αK i” value (Mt-GuaB2; [5])?
A: The value was 11.2 µM.

Q: And the Ki (Mt-GuaB2; Table 2, varied NAD+, fixed saturating IMP […], read-out: NAD K i)?
A: Its Ki is 435 µM.

Q: And the “M. tb MIC90” value (M. tuberculosis H37Rv; [6])?
A: The value was 5.30 µg/mL.

Q: With `O=C(Nc1nnc(-c2ccccc2)o1)c1cc(-c2cccs2)nc2ccccc12` [F1374-0885] as the compound, how does the “M. smeg MIC90” value (M. smegmatis mc^2 155; TSB agar, 37°C, 3 days) read?
A: Its value is 2 µg/mL.

Q: What about the “IMP αK i” value (Mt-GuaB2; [5]) of the same compound?
A: Its value is 19.0 µM.

Q: What about the “M. tb MIC90” value (M. tuberculosis H37Rv; [6]) of the same compound?
A: The value was 0.72 µg/mL.

Q: With `O=C(Nc1nnc(-c2cccs2)o1)c1nc2ccccc2s1` [F1374-0978] as the compound, how does the “M. smeg MIC90” value (M. smegmatis mc^2 155; TSB agar, 37°C, 3 days) read?
A: The value was >128 µg/mL.

Q: And the “IMP αK i” value (Mt-GuaB2; [5])?
A: Its value is 28.3 µM.

Q: And the “M. tb MIC90” value (M. tuberculosis H37Rv; [7])?
A: Its value is 2.98 ^a µg/ml.

Q: Which results are given for `O=C(Nc1nnc(-c2ccc(Cl)s2)o1)c1nc2ccccc2s1` [F1374-1083]?
A: M. smeg MIC90 (M. smegmatis mc^2 155; TSB agar, 37°C, 3 days): >128 µg/mL; IMP αK i (Mt-GuaB2; [5]): 4.86 µM; M. tb MIC90 (M. tuberculosis H37Rv; [6]): 4.81 µg/mL

Q: Which results are given for `CC(C)c1ccc(OCC(=O)Nc2nccs2)cc1` [F1685-0077]?
A: M. smeg MIC90 (M. smegmatis mc^2 155; TSB agar, 37°C, 3 days): >128 µg/mL; IMP αK i (Mt-GuaB2; [5]): 229.3 µM; M. tb MIC90 (M. tuberculosis H37Rv; [6]): 6.88 µg/mL

Q: Which results are given for `CCOc1cc(-c2nnc(NC(=O)c3cc4ccccc4cc3OC)o2)cc(OCC)c1OCC` [F2517-0198]?
A: M. smeg MIC90 (M. smegmatis mc^2 155; TSB agar, 37°C, 3 days): >128 µg/mL; IMP αK i (Mt-GuaB2; [5]): 19.1 µM; M. tb MIC90 (M. tuberculosis H37Rv; [6]): 2.68 µg/mL

Q: For `Cc1ccc(-c2nnc(NC(=O)c3nc4ccccc4s3)o2)c(C)c1` [F2518-0183], which “M. smeg MIC90” value (M. smegmatis mc^2 155; TSB agar, 37°C, 3 days) is on record?
A: The value was >128 µg/mL.

Q: And the “IMP αK i” value (Mt-GuaB2; [5])?
A: The value was 57.1 µM.

Q: What about the “M. tb MIC90” value (M. tuberculosis H37Rv; [7]) of the same compound?
A: Its value is 1.76 ^a µg/ml.

Q: With `Cc1ccc(-c2nnc(NC(=O)COc3ccccc3)o2)c(C)c1` [F2518-0274] as the compound, how does the “M. smeg MIC90” value (M. smegmatis mc^2 155; TSB agar, 37°C, 3 days) read?
A: Its value is 20 µg/mL.

Q: What about the “IMP αK i” value (Mt-GuaB2; [5]) of the same compound?
A: Its value is 765.4 µM.

Q: And the “M. tb MIC90” value (M. tuberculosis H37Rv; [6])?
A: The value was 5.50 µg/mL.

Q: For `Cc1ccc(C)c(-c2nnc(NC(=O)c3cccc4ccccc34)o2)c1` [F2518-0386], which “IMP αK i” value (Mt-GuaB2; [5]) is on record?
A: Its value is 22.6 µM.

Q: What about the “M. tb MIC90” value (M. tuberculosis H37Rv; [7]) of the same compound?
A: The value was 0.41 µg/ml and 0.41 ^a µg/ml.

Q: With `Cc1ccc(C)c(-c2nnc(NC(=O)C3COc4ccccc4O3)o2)c1` (centres unmarked) [F2518-0401] as the compound, how does the “M. smeg MIC90” value (M. smegmatis mc^2 155; TSB agar, 37°C, 3 days) read?
A: Its value is 16 µg/mL.

Q: What about the “IMP αK i” value (Mt-GuaB2; [5]) of the same compound?
A: The value was 501.9 µM.

Q: What about the “M. tb MIC90” value (M. tuberculosis H37Rv; [6]) of the same compound?
A: Its value is 1.18 µg/mL.

Q: What does the source list for `COc1cc2ccccc2cc1C(=O)Nc1nnc(-c2cc(C)ccc2C)o1` [F2518-0413]?
A: M. smeg MIC90 (M. smegmatis mc^2 155; TSB agar, 37°C, 3 days): >128 µg/mL; IMP αK i (Mt-GuaB2; [5]): 36.4 µM; M. tb MIC90 (M. tuberculosis H37Rv; [6]): 1.23 µg/mL

Q: Which results are given for `Cc1ccc(C)c(-c2nnc(NC(=O)COc3ccccc3)o2)c1` [F2518-0418]?
A: M. smeg MIC90 (M. smegmatis mc^2 155; TSB agar, 37°C, 3 days): 32 µg/mL; IMP αK i (Mt-GuaB2; [5]): 328.7 µM; M. tb MIC90 (M. tuberculosis H37Rv; [6]): 2.24 µg/mL

Q: With `O=C(Nc1nnc(-c2ccc(Br)cc2)o1)c1sc2ccccc2c1Cl` [F2518-0484] as the compound, how does the “M. smeg MIC90” value (M. smegmatis mc^2 155; TSB agar, 37°C, 3 days) read?
A: The value was 3 µg/mL.

Q: And the “IMP αK i” value (Mt-GuaB2; [5])?
A: The value was 35.5 µM.

Q: And the “M. tb MIC90” value (M. tuberculosis H37Rv; [6])?
A: The value was 6.70 µg/mL.

Q: Which “M. smeg MIC90” value (M. smegmatis mc^2 155; TSB agar, 37°C, 3 days) does the source give for `O=C(CS(=O)(=O)c1ccccc1)Nc1nc(-c2ccc3c(c2)CCCC3)cs1` [F2536-1573] here?
A: The value was >128 µg/mL.

Q: What about the “IMP αK i” value (Mt-GuaB2; [5]) of the same compound?
A: The value was 79.0 µM.

Q: What about the “M. tb MIC90” value (M. tuberculosis H37Rv; [6]) of the same compound?
A: The value was 1.02 µg/mL.

Q: Which results are given for `NNC(=O)c1ccncc1` [Isoniazid, isoniazid, reference compound]?
A: Log 10 Protection, lung ([1]; 300 mg/kg/day): 2.7 log10 protection units; Log 10 Protection, lung ([1]; listed as INH, 300 mg/kg/day): 2.70 log10 protection units; Log 10 Protection, spleen ([1]; spleen, 300 mg/kg/day): 4.0 log10 protection units; Log 10 Protection, spleen ([1]; spleen, listed as INH, 300 mg/kg/day): 4.04 log10 protection units

Q: Which Km (S. pyogenes IMPDH) does the source give for `NC(=O)c1ccc[n+]([C@@H]2O[C@H](COP(=O)([O-])OP(=O)(O)OC[C@H]3O[C@@H](n4cnc5c(N)ncnc54)[C@H](O)[C@@H]3O)[C@@H](O)[C@H]2O)c1` [NAD^+, nicotinamide adenine dinucleotide] here?
A: The Km was ~1180 µM.

Q: What does the source list for `COc1ccc(OC(C)C(=O)Nc2ccc(I)cc2)cc1` (centres unmarked) [compound 7759844]?
A: tolerability, acute single dose [2]: no dose related adverse effects; also recorded: well tolerated with no acute adverse effects; also recorded: not toxic; MIC90 (M. smegmatis mc^2 155; Mycolicibacterium smegmatis, MC^2155, 72 h, Table 1, TSB agar, 37°C, 3 days, read-out: M. smeg MIC90): 8 µg/mL (≈ 20.1 µM); MIC99 (M. smegmatis mc^2 155; Mycolicibacterium smegmatis, MC^2155, Figure 4, M. smegmatis mc^2 155): 8 µg/mL (≈ 20.1 µM); MIC99 ([3]; Mycolicibacterium smegmatis, Figure 4, Mt-GuaB2 overexpression construct in pVV16): 48 µg/mL (≈ 121 µM); increase in MIC of Mt-GuaB2 overexpressing strain ([3]; compared with pVV16 vector control and wild type M. smegmatis): 6 fold; IMP αK i (Mt-GuaB2; Table 1, varied IMP, fixed saturating NAD+ 2.8 mM): 0.603 µM; IMP αK i (Mt-GuaB2; Table 3, analogs of lead scaffold): 0.603 µM; K i values (Mt-GuaB2; with respect to both substrates IMP and NAD+): nanomolar range; MIC99 (M. smegmatis pVV16): 8 µg/mL; Log 10 Protection, spleen ([1]; spleen): 0.84 log10 protection units; Activity ([1]; spleen, 300 mg/kg/day): slightly active; MBC (M. smegmatis): 32 µg/mL (≈ 80.6 µM); M. tb MIC90 (M. tuberculosis H37Rv; Table 1, Chembridge compounds, M. tuberculosis H37Rv, previous screens ref [35]–[37]): 0.63 µg/mL; M. tb MIC90 (M. tuberculosis H37Rv; Table 3, analogs of lead scaffold, previous screens ref [35]–[37]): 0.633 µg/mL

Q: For “Mt-GuaB2 (Mycobacterium tuberculosis H37Rv)”, which Km [4] is on record?
A: The Km was 699.4 ± 63.70 µM.
